In US20140005163A1 (NOVARTIS AG, priority 2010, published 2014):
Converted amounts (≈) assume the structure as drawn.

What was measured:
[1] = Solubility at pH 6.8; type: physicochemical; details: pH 6.8, aqueous buffer, thermodynamic from solid; read-out: solubility
Procedure, shortened: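 Following the procedure of Zhou et al. (2007), compound solubility was determined at pH 6.8.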

[2] = biological target: T1, PI3K alpha (Homo sapiens, UniProt P42336); experiment: PI3K alpha kinase assay (Kinase-Glo luminescence); type: biochemical
T1 construct: p85(iSH2) fusion partner (see partner chain) (N); His tag (C); made in house; host or cells: baculovirus; Tn5 (Trichoplusia ni) or TiniPro insect cells
T1 sequence (P42336 with tags, fused parts or gaps limits assumed): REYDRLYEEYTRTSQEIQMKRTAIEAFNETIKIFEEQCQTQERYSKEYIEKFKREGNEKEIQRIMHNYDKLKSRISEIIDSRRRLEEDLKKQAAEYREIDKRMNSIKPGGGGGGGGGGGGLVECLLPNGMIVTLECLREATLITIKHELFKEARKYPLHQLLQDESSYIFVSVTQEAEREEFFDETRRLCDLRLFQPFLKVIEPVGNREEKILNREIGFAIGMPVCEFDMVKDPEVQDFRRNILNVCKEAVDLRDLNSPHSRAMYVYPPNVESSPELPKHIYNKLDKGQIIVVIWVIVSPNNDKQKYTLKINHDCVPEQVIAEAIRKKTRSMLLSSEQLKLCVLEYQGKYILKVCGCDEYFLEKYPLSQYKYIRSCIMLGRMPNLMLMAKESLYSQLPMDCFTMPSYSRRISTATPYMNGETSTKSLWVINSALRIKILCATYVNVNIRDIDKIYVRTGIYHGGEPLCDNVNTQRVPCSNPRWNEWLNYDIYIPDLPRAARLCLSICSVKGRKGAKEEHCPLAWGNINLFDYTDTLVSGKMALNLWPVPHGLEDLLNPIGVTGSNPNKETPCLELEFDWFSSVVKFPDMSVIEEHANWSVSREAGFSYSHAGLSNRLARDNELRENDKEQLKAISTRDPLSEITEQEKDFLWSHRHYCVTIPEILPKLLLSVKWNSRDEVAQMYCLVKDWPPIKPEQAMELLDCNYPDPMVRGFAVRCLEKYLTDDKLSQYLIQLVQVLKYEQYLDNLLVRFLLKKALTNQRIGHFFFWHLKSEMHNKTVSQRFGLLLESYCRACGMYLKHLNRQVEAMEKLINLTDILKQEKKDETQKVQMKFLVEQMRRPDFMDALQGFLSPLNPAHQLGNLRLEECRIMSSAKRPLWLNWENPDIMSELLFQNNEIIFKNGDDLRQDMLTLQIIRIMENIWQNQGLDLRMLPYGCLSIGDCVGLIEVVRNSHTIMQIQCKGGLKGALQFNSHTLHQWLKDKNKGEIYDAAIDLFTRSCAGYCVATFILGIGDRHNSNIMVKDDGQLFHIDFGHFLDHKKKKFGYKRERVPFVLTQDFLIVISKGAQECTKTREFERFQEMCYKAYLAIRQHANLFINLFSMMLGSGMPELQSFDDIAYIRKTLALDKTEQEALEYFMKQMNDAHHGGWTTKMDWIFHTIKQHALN
Procedure, shortened: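 PI3K alpha at 10 nM with 1 μM ATP and 10 μg/mL phosphatidylinositol in 10 mM TRIS pH 7.5, 3 mM MgCl2, 50 mM NaCl, 0.05% CHAPS, 1 mM DTT, 60 min at room temperature. Remaining ATP read by Kinase-Glo luminescence. IC50 by 4-parameter fit over 8 concentrations.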

Structure (SMILES)	solubility [1] [µg/mL]	IC50 [2] [nM]
COc1ccc(-c2ccc3ncc4c(c3c2)n(-c2cc(C)nn2C)c(=O)n4C)cc1OC [Example 1.4, 8-(3,4-Dimethoxy-phenyl)-1-(2,5-dimethyl-2H-pyrazol-3-yl)-3-methyl-1,3-dihydro-imidazo[4,5-c]quinolin-2-one]	4 (≈ 9.31 µM)	39
Cc1nn(C)c(C)c1-n1c(=O)n(C)c2cnc3ccc(-c4ccc(CO)nc4)cc3c21 [Example 16.4, 8-(6-Hydroxymethyl-pyridin-3-yl)-3-methyl-1-(1,3,5-trimethyl-1H-pyrazol-4-yl)-1,3-dihydro-imidazo[4,5-c]quinolin-2-one]	> 414	184
Cn1cc(-n2c(=O)n(C)c3cnc4ccc(-c5ccc(CO)nc5)cc4c32)c(Cl)n1 [Example 16.5, 1-(3-chloro-1-methyl-1H-pyrazol-4-yl)-8-(6-hydroxymethyl-pyridin-3-yl)-3-methyl-1,3-dihydro-imidazo[4,5-c]quinolin-2-one]	15 (≈ 35.6 µM)	3
Cn1nccc1-n1c(=O)n(C)c2cnc3ccc(-c4ccc(NCCO)nc4)cc3c21 [Example 21.1, 8-[6-(2-Hydroxy-ethylamino)-pyridin-3-yl]-3-methyl-1-(2-methyl-2H-pyrazol-3-yl)-1,3-dihydro-imidazo[4,5-c]quinolin-2-one]	> 415	272
CCn1cc(-n2c(=O)n(C)c3cnc4ccc(-c5cncc(N)c5)cc4c32)c(C)n1 [Example 45.2, 8-(5-Amino-pyridin-3-yl)-1-(1-ethyl-3-methyl-1H-pyrazol-4-yl)-3-methyl-1,3-dihydro-imidazo[4,5-c]quinolin-2-one]	10 (≈ 25 µM)	74
Cc1nn(C(C)C)cc1-n1c(=O)n(C)c2cnc3ccc(-c4cncc(N)c4)cc3c21 [Example 45.3, 8-(5-Amino-pyridin-3-yl)-1-(1-isopropyl-3-methyl-1H-pyrazol-4-yl)-3-methyl-1,3-dihydro-imidazo[4,5-c]quinolin-2-one]	4 (≈ 9.67 µM)	76
Cc1cnn(C)c1-n1c(=O)n(C)c2cnc3ccc(-c4cncc(OC(C)C)c4)cc3c21 [Example 58.3, 1-(2,4-Dimethyl-2H-pyrazol-3-yl)-8-(5-isopropoxy-pyridin-3-yl)-3-methyl-1,3-dihydro-imidazo[4,5-c]quinolin-2-one]	6 (≈ 14 µM)	236
COCCOc1cncc(-c2ccc3ncc4c(c3c2)n(-c2cn(C)nc2Cl)c(=O)n4C)c1 [Example 59.2, 1-(3-Chloro-1-methyl-1H-pyrazol-4-yl)-8-[5-(2-methoxy-ethoxy)-pyridin-3-yl]-3-methyl-1,3-dihydro-imidazo[4,5-c]quinolin-2-one]	6 (≈ 12.9 µM)	5
CCOc1ncc(-c2ccc3ncc4c(c3c2)n(-c2cn(C)nc2C)c(=O)n4C)cc1NC(C)=O [Example 65, N-{5-[1-(1,3-Dimethyl-1H-pyrazol-4-yl)-3-methyl-2-oxo-2,3-dihydro-1H-imidazo[4,5-c]quinolin-8-yl]-2-ethoxy-pyridin-3-yl}-acetamide]	31 (≈ 65.7 µM)	460
CCOc1cc(-c2ccc3ncc4c(c3c2)n(-c2c(C)nn(CC(=O)N(C)C)c2C)c(=O)n4C)cnc1C [Example 85.3, 2-{4-[8-(5-Ethoxy-6-methyl-pyridin-3-yl)-3-methyl-2-oxo-2,3-dihydro-imidazo[4,5-c]quinolin-1-yl]-3,5-dimethyl-pyrazol-1-yl}-N,N-dimethyl-acetamide]	76 (≈ 148 µM)	34
CCNc1cc(-c2ccc3ncc4c(c3c2)n(-c2cn(CC)nc2C)c(=O)n4C)cnc1C [Example 87.3, 8-(5-Ethylamino-6-methyl-pyridin-3-yl)-1-(1-ethyl-3-methyl-1H-pyrazol-4-yl)-3-methyl-1,3-dihydro-imidazo[4,5-c]quinolin-2-one]	> 442	9
COc1ncc(-c2ccc3ncc4c(c3c2)n(-c2cn(C)nc2Cl)c(=O)n4C)cc1N [Example 89, 8-(5-Amino-6-methoxy-pyridin-3-yl)-1-(3-chloro-1-methyl-1H-pyrazol-4-yl)-3-methyl-1,3-dihydro-imidazo[4,5-c]quinolin-2-one]	3 (≈ 6.88 µM)	18
Cc1nn(C)cc1-n1c(=O)n(C)c2cnc3ccc(-c4ccnc(OC(C)C)c4)cc3c21 [Example 92, 1-(1,3-Dimethyl-1H-pyrazol-4-yl)-8-(2-isopropoxy-pyridin-4-yl)-3-methyl-1,3-dihydro-imidazo[4,5-c]quinolin-2-one]	7 (≈ 16.3 µM)	104
CCN(C)c1ccc(-c2ccc3ncc4c(c3c2)n(-c2cn(C)nc2C)c(=O)n4C)cn1 [Example 98.1, 1-(1,3-Dimethyl-1H-pyrazol-4-yl)-8-[6-(ethyl-methyl-amino)-pyridin-3-yl]-3-methyl-1,3-dihydro-imidazo[4,5-c]quinolin-2-one]	8 (≈ 18.7 µM)	34
Cc1nn(C)cc1-n1c(=O)n(C)c2cnc3ccc(-c4ccc(N5CCNCC5)nc4)cc3c21 [Example 126, 1-(1,3-Dimethyl-1H-pyrazol-4-yl)-3-methyl-8-(6-piperazin-1-yl-pyridin-3-yl)-1,3-dihydro-imidazo[4,5-c]quinolin-2-one]	> 455	51
Cc1nn(C)cc1-n1c(=O)n(C)c2cnc3ccc(-c4cnc5ccn(C)c5c4)cc3c21 [Example 129, 1-(1,3-Dimethyl-1H-pyrazol-4-yl)-3-methyl-8-(1-methyl-1H-pyrrolo[3,2-b]pyridin-6-yl)-1,3-dihydro-imidazo[4,5-c]quinolin-2-one]	21 (≈ 49.6 µM)	12
CNc1ncc(-c2ccc3ncc4c(c3c2)n(-c2cn(C(C)C)nc2C)c(=O)n4C)cc1F [Example 141.3, 8-(5-Fluoro-6-methylamino-pyridin-3-yl)-1-(1-isopropyl-3-methyl-1H-pyrazol-4-yl)-3-methyl-1,3-dihydro-imidazo[4,5-c]quinolin-2-one]	5 (≈ 11.2 µM)	21
Cc1nn(C(C)C)cc1-n1c(=O)n(C)c2cnc3ccc(-c4cnc(N)c(F)c4)cc3c21 [Example 142.3, 8-(6-Amino-5-fluoro-pyridin-3-yl)-1-(1-isopropyl-3-methyl-1H-pyrazol-4-yl)-3-methyl-1,3-dihydro-imidazo[4,5-c]quinolin-2-one]	5 (≈ 11.6 µM)	25
CNc1ncc(-c2ccc3ncc4c(c3c2)n(-c2c(C)nn(C)c2C)c(=O)n4C)cc1C(F)(F)F [Example 144.1, 3-Methyl-8-(6-methylamino-5-trifluoromethyl-pyridin-3-yl)-1-(1,3,5-trimethyl-1H-pyrazol-4-yl)-1,3-dihydro-imidazo[4,5-c]quinolin-2-one]	> 481	36
Cc1nn(C)c(C)c1-n1c(=O)n(C)c2cnc3ccc(-c4cnc(N)c(Cl)c4)cc3c21 [Example 148.1, 8-(6-Amino-5-chloro-pyridin-3-yl)-3-methyl-1-(1,3,5-trimethyl-1H-pyrazol-4-yl)-1,3-dihydro-imidazo[4,5-c]quinolin-2-one]	92 (≈ 212 µM)	26
Cc1nn(C)cc1-n1c(=O)n(C)c2cnc3ccc(-c4cnc(N)c(Cl)c4)cc3c21 [Example 148.2, 8-(6-Amino-5-chloro-pyridin-3-yl)-1-(1,3-dimethyl-1H-pyrazol-4-yl)-3-methyl-1,3-dihydro-imidazo[4,5-c]quinolin-2-one]	4 (≈ 9.53 µM)	18
